According to ChEMBL document CHEMBL3885861, “Open TG-GATES”:

Species on record: Rattus norvegicus
Assay: Open TG-GATES - Regimen: Single
Type: toxicity, organism-based, Sprague-Dawley
Set-up: regimen Single, gender Male, age 6 weeks
Conditions: in vivo, po, 0 mg/kg, route gavage, dose level Control; for APTT / Bas / Eos / Fbg / Hb / Ht / Lym / MCH / MCHC / MCV / Mono / Neu / PT / Plat / RBC / Ret / WBC: tissue Blood; for A/G / ALP / ALT / AST / BUN / CRE / Ca / Cl / DBIL / GLC / IP / K / LDH / Na / PL / RALB / TBIL / TC / TG / TP / gamma-GTP: tissue Plasma

## Cn1cc[nH]c1=S [METHIMAZOLE]
3 h
  TERMINAL_BW: 207.3 g
  APTT: 20.3 s
  Bas: 0%
  Eos: 0.4%
  Fbg: 292.4 mg/dL
  Hb: 13.6 g/dL
  Ht: 38.8%
  Lym: 82.4%
  MCH: 22.3 pg
  MCHC: 35.1%
  MCV: 63.5 fL
  Mono: 1.8%
  Neu: 14.6%
  PT: 15.8 s
  Plat: 122.5 x10_4/uL
  RBC: 612 x10_4/ul
  Ret: 8.6%
  WBC: 96.4 x10_2/uL
  A/G: 1.3
  ALP: 1879.2 IU/L
  ALT: 44.4 IU/L
  AST: 75.8 IU/L
  BUN: 14.4 mg/dL
  CRE: 0.2 mg/dL
  Ca: 10.6 mg/dL
  Cl: 106.8 meq/L
  DBIL: 0.002 mg/dL
  GLC: 190.6 mg/dL
  IP: 8.2 mg/dL
  K: 4.1 meq/L
  LDH: 186.8 IU/L
  Na: 142 meq/L
  PL: 143.6 mg/dL
  RALB: 3 g/dL
  TBIL: 0.02 mg/dL
  TC: 84 mg/dL
  TG: 55.6 mg/dL
  TP: 5.4 g/dL
  gamma-GTP: 1 IU/L
6 h
  TERMINAL_BW: 210.9 g
  APTT: 21.9 s
  Bas: 0%
  Eos: 0.8%
  Fbg: 287.6 mg/dL
  Hb: 13.5 g/dL
  Ht: 38.4%
  Lym: 82%
  MCH: 22.3 pg
  MCHC: 35.1%
  MCV: 63.6 fL
  Mono: 2.6%
  Neu: 13.8%
  PT: 16 s
  Plat: 117.7 x10_4/uL
  RBC: 605 x10_4/ul
  Ret: 9.1%
  WBC: 103.6 x10_2/uL
  A/G: 1.2
  ALP: 1447.2 IU/L
  ALT: 47.2 IU/L
  AST: 77.4 IU/L
  BUN: 10.8 mg/dL
  CRE: 0.1 mg/dL
  Ca: 10.6 mg/dL
  Cl: 106.4 meq/L
  DBIL: 0 mg/dL
  GLC: 185 mg/dL
  IP: 9.7 mg/dL
  K: 4.4 meq/L
  LDH: 228 IU/L
  Na: 141.8 meq/L
  PL: 141.6 mg/dL
  RALB: 3 g/dL
  TBIL: 0.022 mg/dL
  TC: 79.4 mg/dL
  TG: 54.2 mg/dL
  TP: 5.4 g/dL
  gamma-GTP: 1 IU/L
9 h
  TERMINAL_BW: 203.8 g
  APTT: 21.7 s
  Bas: 0%
  Eos: 0.8%
  Fbg: 302.2 mg/dL
  Hb: 13.4 g/dL
  Ht: 38.7%
  Lym: 81.6%
  MCH: 22 pg
  MCHC: 34.7%
  MCV: 63.4 fL
  Mono: 2.2%
  Neu: 14.8%
  PT: 16 s
  Plat: 119.6 x10_4/uL
  RBC: 610 x10_4/ul
  Ret: 7.7%
  WBC: 102.4 x10_2/uL
  A/G: 1.1
  ALP: 1453.2 IU/L
  ALT: 40.2 IU/L
  AST: 68.8 IU/L
  BUN: 11.4 mg/dL
  CRE: 0.1 mg/dL
  Ca: 10.4 mg/dL
  Cl: 106 meq/L
  DBIL: 0.002 mg/dL
  GLC: 184.2 mg/dL
  IP: 9.8 mg/dL
  K: 4.1 meq/L
  LDH: 181.8 IU/L
  Na: 141.6 meq/L
  PL: 136.8 mg/dL
  RALB: 2.9 g/dL
  TBIL: 0.014 mg/dL
  TC: 73 mg/dL
  TG: 75.6 mg/dL
  TP: 5.5 g/dL
  gamma-GTP: 1.2 IU/L
24 h
  TERMINAL_BW: 225.5 g
  APTT: 21.4 s
  Bas: 0%
  Eos: 1%
  Fbg: 315 mg/dL
  Hb: 13.7 g/dL
  Ht: 38.8%
  Lym: 78%
  MCH: 22.1 pg
  MCHC: 35.3%
  MCV: 62.5 fL
  Mono: 2.8%
  Neu: 17.4%
  PT: 15.7 s
  Plat: 124.5 x10_4/uL
  RBC: 621.4 x10_4/ul
  Ret: 8.2%
  WBC: 97.4 x10_2/uL
  A/G: 1.1
  ALP: 1887.6 IU/L
  ALT: 42.8 IU/L
  AST: 69 IU/L
  BUN: 15.8 mg/dL
  CRE: 0.1 mg/dL
  Ca: 11 mg/dL
  Cl: 104.6 meq/L
  DBIL: 0 mg/dL
  GLC: 180.6 mg/dL
  IP: 7.6 mg/dL
  K: 4.2 meq/L
  LDH: 183.2 IU/L
  Na: 142.4 meq/L
  PL: 156.6 mg/dL
  RALB: 2.9 g/dL
  TBIL: 0.004 mg/dL
  TC: 77.8 mg/dL
  TG: 120.4 mg/dL
  TP: 5.6 g/dL
  gamma-GTP: 1 IU/L
